Assay results published in patent US6962920B2, “Pyrimidine derivatives and methods of making and using these derivatives” (Duquesne University of the Holy Ghost, priority 1992, dated 2005).
Where two headings read alike, the source gives them in different places.

Columns and labels:
FaDu = test: Growth inhibition of FaDu human squamous carcinoma cell line; type: cell-based
CCRF-CEM DHFR = biological target: T1, CCRF-CEM DHFR (Homo sapiens, UniProt P00374); test: Inhibition of DHFR isolated from human CCRF-CEM leukemic cells; type: biochemical; details: Table 17
T1 construct: DHFR isolated from human CCRF-CEM leukemic cells; endogenous in cells; host or cells: CCRF-CEM human leukemic cells

L. casei DHFR = L. casei DHFR (Lacticaseibacillus casei, UniProt P00381); test: Inhibition of Lactobacillus casei DHFR; type: biochemical
CCRF-CEM cells = test: Growth inhibition of CCRF-CEM human leukemia cells, continuous exposure; type: cell-based
[1] = biological target: T2, CCRF-CEM human leukemia cell folylpolyglutamate synthetase (Homo sapiens, UniProt Q05932); test: Substrate activity for CCRF-CEM folylpolyglutamate synthetase; type: biochemical; details: Table 18
T2 construct: substrates for human leukemia cell CCRF-CEM folylpolyglutamate synthetase; endogenous in cells; host or cells: CCRF-CEM human leukemia cells
T2 sequence (Q05932 43-587): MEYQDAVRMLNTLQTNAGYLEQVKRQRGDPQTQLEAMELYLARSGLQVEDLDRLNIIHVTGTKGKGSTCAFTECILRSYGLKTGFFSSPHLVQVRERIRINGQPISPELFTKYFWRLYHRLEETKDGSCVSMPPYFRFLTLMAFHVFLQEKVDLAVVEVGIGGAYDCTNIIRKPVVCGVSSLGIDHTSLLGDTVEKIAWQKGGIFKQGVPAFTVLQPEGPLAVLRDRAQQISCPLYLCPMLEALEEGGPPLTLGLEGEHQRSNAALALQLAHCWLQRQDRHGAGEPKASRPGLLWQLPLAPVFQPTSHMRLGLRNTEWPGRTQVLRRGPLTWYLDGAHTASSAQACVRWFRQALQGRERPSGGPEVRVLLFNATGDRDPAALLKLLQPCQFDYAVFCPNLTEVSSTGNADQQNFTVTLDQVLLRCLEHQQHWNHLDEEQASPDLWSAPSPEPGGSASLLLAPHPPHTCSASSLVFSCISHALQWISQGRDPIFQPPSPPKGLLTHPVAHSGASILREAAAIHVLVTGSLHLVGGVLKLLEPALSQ
Experimental: (§1) Aminopterin is a classical 2,4-diamino antifolate substrate.
(§2) Compounds 33 and 34 were also evaluated for their substrate activity in CCRF-CEM human leukemia folylpolyglutamate synthetase; the compounds were compared against aminopterin.

R30dm cells = test: Growth inhibition of R30dm subline (decreased polyglutamate synthase); type: cell-based; details: Homo sapiens
A253 = test: Growth inhibition of A253 human squamous carcinoma cell line; type: cell-based; details: Table 19, continuous exposure (0 to 120 hours)
Experimental: The performance of these compounds was evaluated against MTX.

human recombinant TS = human recombinant TS (Homo sapiens, UniProt P04818); test: Inhibition of human recombinant TS; type: biochemical; details: Table 17; read-out: Human REC TS IC50
FaDu cells = test: Protection of FaDu cells from growth inhibition by hypoxanthine, thymidine, leucovorin; type: cell-based, human
Experimental: Compound 113-161 was also tested for its ability to inhibit the growth of FaDu human squamous cell carcinoma cell lines. Performance was tested against MTX using hypoxanthine (Hx) and Thymidine (TdR).
Protection after 120 hours with di-LV was also determined. All of the tested compounds reversed inhibition with leucovorin.

Tg DHFR = biological target: T3, Tg DHFR (Toxoplasma gondii, UniProt Q07422); test: biochemical; type: biochemical
T3 sequence (Q07422 1-610): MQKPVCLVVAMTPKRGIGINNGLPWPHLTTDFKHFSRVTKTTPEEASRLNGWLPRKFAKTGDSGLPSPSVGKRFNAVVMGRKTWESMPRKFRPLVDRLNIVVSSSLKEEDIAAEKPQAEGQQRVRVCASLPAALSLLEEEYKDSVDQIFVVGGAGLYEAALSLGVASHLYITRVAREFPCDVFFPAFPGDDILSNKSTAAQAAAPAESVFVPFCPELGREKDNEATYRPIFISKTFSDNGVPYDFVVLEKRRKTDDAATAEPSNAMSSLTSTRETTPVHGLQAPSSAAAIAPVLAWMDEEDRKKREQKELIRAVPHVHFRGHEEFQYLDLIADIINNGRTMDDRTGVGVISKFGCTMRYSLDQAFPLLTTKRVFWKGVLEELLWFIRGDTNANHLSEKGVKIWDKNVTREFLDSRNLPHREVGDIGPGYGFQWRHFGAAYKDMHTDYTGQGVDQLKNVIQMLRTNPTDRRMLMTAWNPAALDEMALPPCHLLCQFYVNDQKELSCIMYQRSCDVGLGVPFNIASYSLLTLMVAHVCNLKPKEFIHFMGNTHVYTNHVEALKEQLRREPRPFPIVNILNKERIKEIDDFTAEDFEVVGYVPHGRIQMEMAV
Experimental: (§3) The selectivity ratio is a measure of the selectivity of a compound for Pc DHFR or Tg DHFR and is expressed as the IC50 value of the DHFR from rate liver (RL) divided by the IC50 value of either the Pc DHFR or the Tg DHFR, depending on which organism the compounds are being tested against. For example, the selectivity ratio of a compound is calculated by the following formula: [formula]

Pc DHFR [2] = biological target: T4, Pc DHFR (Pneumocystis carinii, UniProt P16184); test: biochemical
T4 sequence (P16184 1-206): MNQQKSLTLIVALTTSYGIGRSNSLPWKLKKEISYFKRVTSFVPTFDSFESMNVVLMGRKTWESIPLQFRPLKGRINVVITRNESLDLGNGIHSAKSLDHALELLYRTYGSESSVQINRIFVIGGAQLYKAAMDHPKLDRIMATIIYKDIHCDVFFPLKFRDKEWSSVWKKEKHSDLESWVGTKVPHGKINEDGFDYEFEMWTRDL

Pc DHFR [3] = biological target: T4, Pc DHFR; type: biochemical
Experimental: as §3

RL DHFR = biological target: T5, RL DHFR (Rattus norvegicus, UniProt Q920D2); test: Inhibition of DHFR from rat liver; type: biochemical; details: Table 25; read-out: Inhibitor Concentrations (IC50) rlDHFR
T5 construct: Toxoplasmosis gondii (Tg) and rat liver (RL); from tissue; host or cells: rat liver
T5 sequence (Q920D2 1-187): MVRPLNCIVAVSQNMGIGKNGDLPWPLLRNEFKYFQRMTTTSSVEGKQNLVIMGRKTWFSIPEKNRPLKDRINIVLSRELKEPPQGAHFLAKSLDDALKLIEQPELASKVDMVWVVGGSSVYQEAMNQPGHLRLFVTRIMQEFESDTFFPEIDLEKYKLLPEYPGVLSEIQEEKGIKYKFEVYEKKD
Experimental: as §3

R2 cells = test: Growth inhibition of R2 subline (MTX-transport deficient); type: cell-based; details: Homo sapiens
R1 cells = test: Growth inhibition of R1 subline (increased DHFR); type: cell-based; details: Homo sapiens
[4] = biological target: E-coli thymidylate synthase (ecTS) (Escherichia coli, UniProt P0A884); test: Inhibition of E. coli thymidylate synthase; type: biochemical; details: b353; read-out: inhibition of TS from E. coli
Experimental: All of the compounds were tested against human cells, L. casei, E. coli, and S. faecium.

TS from P. carinii = TS from P. carinii (Pneumocystis carinii, UniProt P13100); test: Inhibition of P. carinii TS; type: biochemical; details: b353
L. casei TS = L. casei TS (Lacticaseibacillus casei, UniProt P00469); test: Inhibition of thymidylate synthase (TS), L. casei; type: biochemical, Lactobacillus casei
[5] = substrate: Nc1nc(N)c2c(CCc3ccc(C(=O)N[C@@H](CCC(=O)O)C(=O)O)cc3)coc2n1; test: Substrate activity for CCRF-CEM folylpolyglutamate synthetase; type: biochemical, human; details: other: Table 18; substrate for FPGS
Experimental: as §1, §2

[6] = substrate: Nc1nc(N)c2nc(CNc3ccc(C(=O)N[C@@H](CCC(=O)O)C(=O)O)cc3)cnc2n1; test: as above; type: biochemical, human; details: substrate for FPGS
Experimental: as §1, §2

[7] = Table 15, continuous (120 hours) exposure, read-out: Growth inhibition EC50, FaDu
[8] = Table 19, continuous exposure (0 to 120 hours), read-out: Growth inhibition EC50, CCRF-CEM
[9] = read-out: Growth inhibition EC50

T1 sequence (P00374 whole entry): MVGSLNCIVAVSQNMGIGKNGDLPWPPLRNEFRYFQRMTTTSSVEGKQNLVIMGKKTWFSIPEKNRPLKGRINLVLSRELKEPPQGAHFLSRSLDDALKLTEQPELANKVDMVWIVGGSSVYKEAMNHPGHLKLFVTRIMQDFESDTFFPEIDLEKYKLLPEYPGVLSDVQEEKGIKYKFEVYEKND
Sequence of L. casei DHFR (P00381 whole entry): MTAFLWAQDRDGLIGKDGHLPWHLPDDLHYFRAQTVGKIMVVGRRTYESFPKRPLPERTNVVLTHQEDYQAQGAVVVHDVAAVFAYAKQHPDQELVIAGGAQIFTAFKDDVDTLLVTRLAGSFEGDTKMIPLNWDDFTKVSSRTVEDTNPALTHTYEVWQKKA
Sequence of human recombinant TS (P04818 whole entry): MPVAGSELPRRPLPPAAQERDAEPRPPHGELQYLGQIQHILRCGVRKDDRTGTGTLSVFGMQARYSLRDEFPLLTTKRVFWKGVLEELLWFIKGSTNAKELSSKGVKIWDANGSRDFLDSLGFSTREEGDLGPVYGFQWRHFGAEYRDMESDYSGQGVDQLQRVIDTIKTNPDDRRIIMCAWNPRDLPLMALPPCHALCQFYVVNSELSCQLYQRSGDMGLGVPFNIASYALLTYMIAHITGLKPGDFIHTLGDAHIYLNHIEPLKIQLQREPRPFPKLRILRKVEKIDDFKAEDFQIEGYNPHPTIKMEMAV
Sequence of L. casei TS (P00469 whole entry): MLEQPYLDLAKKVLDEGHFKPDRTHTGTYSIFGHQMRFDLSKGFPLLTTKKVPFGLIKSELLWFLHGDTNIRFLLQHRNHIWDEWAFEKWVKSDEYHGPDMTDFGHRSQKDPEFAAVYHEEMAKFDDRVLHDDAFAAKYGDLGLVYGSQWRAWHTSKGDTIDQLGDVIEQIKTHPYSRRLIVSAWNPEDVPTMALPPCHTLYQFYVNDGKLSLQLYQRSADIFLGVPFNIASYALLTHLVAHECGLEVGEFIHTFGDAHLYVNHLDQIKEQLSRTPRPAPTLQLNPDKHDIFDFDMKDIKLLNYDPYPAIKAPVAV
Sequence of E-coli thymidylate synthase (ecTS) (P0A884 whole entry): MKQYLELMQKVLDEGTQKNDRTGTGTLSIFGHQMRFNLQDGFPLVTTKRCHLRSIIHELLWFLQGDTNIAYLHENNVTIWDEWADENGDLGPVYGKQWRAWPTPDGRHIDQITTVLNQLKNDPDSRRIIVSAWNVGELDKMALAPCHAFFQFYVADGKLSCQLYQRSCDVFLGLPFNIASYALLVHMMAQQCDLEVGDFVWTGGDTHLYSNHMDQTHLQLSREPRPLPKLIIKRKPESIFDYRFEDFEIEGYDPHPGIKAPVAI
Sequence of TS from P. carinii (P13100 whole entry): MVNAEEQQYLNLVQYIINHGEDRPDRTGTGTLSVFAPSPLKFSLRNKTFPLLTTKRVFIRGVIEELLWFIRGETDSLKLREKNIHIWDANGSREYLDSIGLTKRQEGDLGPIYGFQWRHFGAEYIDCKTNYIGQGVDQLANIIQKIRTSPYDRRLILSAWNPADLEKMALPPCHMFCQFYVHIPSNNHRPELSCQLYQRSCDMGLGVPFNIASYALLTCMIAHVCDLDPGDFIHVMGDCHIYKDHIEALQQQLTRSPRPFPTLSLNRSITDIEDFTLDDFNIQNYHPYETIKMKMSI

## CN(Cc1ccc(S(=O)(=O)N2CCOCC2)cc1)c1ccc2c3c(cccc13)C(=N)N2 [AG331]
FaDu; [7]
  EC50: 1000 ± 100 nM

## Nc1nc(N)c2c(CCc3ccc(C(=O)N[C@@H](CCC(=O)O)C(=O)O)cc3)coc2n1 [Compound 33, N-[4-[2-(2,4-diaminofuro[2,3-d]pyrimidin-5-yl)ethyl]-benzoyl]-L-glutamic acid]
CCRF-CEM DHFR
  IC50: 250 nM
L. casei DHFR; Table 17, read-out: L. casei DHFR IC50
  IC50: 100 nM
CCRF-CEM cells; [8]
  EC50: 290 nM
[1]
  Vmax(rel): 0.65 ± 0.01
FaDu; Homo sapiens, FaDu, Table 19, continuous exposure (0 to 120 hours), read-out: Growth inhibition EC50, FaDu
  EC50: 18 ± 20 nM
R30dm cells; Table 19, continuous exposure (0 to 120 hours), read-out: Growth inhibition EC50, R30DM
  EC50: 4250 nM
A253
  EC50: 540 ± 90 nM
Human recombinant TS
  IC50: 220000 nM

## Nc1nc(N)c2c(CNCc3ccc(C(=O)N[C@@H](CCC(=O)O)C(=O)O)cc3)coc2n1 [Compound 34]
CCRF-CEM DHFR
  IC50: 30500 nM
CCRF-CEM cells; [8]
  EC50: 48000 nM
[1]
  Vmax(rel): 0.6
Human recombinant TS
  IC50: 63000 nM

## Cc1nc(N)nc2[nH]cc(CCc3ccc(C(=O)N[C@@H](CCC(=O)O)C(=O)O)cc3)c12 [Compound 113-161]
FaDu cells
  protection study with hypoxanthine (Hx) and thymidine (TdR): almost completely reversed the TS inhibition

## Nc1nc(N)c2c(COc3ccc4ccccc4c3)coc2n1 [Compound 164, 2,4-Diamino-5-[(2-naphthoxy)methyl]furo[2,3-d]pyrimidine]
Tg DHFR; Table 16, read-out: Tg DHFR IC50
  IC50: > 42000 nM
Tg DHFR; Table 25, read-out: Inhibitor Concentrations (IC50) tgDHFR
  IC50: > 42000 nM
Pc DHFR [2]; Table 16, read-out: Pc DHFR IC50
  IC50: 14000 nM
Pc DHFR [2]; Table 25, read-out: Inhibitor Concentrations (IC50) pcDHFR
  IC50: 14000 nM
Pc DHFR [3]; IC50 rlDHFR/IC50 pcDHFR
  Selectivity ratio rl/pc: 4.31
Pc DHFR [3]; Table 16
  Selectivity Ratio RL/Pc: 4.31
RL DHFR
  IC50: 60300 nM

## Nc1nc2[nH]cc(CNc3ccc(C(=O)N[C@@H](CCC(=O)O)C(=O)O)cc3)c2c(=O)[nH]1 [Compound 407]
R2 cells; Table 23, continuous exposure, read-out: Growth inhibition EC50, R2 (↓ transport)
  EC50: 310 ± 30 nM
L. casei DHFR
  IC50: 6900 nM
CCRF-CEM cells; Table 23, continuous exposure, read-out: Growth inhibition EC50, CEM (sensitive)
  EC50: 79 nM
R30dm cells; Table 23, continuous exposure, read-out: Growth inhibition EC50, R30dm (decreased FPGS)
  EC50: 120 ± 10 nM
R1 cells; Table 23, continuous exposure, read-out: Growth inhibition EC50, R1 (↑ DHFR)
  EC50: 200 ± 20 nM
[4]
  IC50: > 12000 nM
TS from P. carinii
  IC50: 5800 nM
L. casei TS
  IC50: 46000 nM

## CN(Cc1cnc2nc(N)nc(N)c2n1)c1ccc(C(=O)N[C@@H](CCC(=O)O)C(=O)O)cc1 [MTX, methotrexate, reference compound]
R2 cells; [9]
  EC50: 1600 ± 100 nM
R2 cells; read-out: Growth inhibition EC50, R2
  EC50: 3100 ± 100 nM
R2 cells; read-out: Growth inhibition EC50, R2 (↓ transport)
  EC50: 2350 ± 550 nM
FaDu; Homo sapiens, FaDu, 120 h, read-out: Growth inhibition EC50, FaDu
  EC50: 31 ± 2 nM
FaDu; Homo sapiens, FaDu, read-out: Growth inhibition EC50
  EC50: 11.3 ± 1.8 nM
FaDu; Homo sapiens, FaDu, read-out: Growth inhibition EC50, FaDu
  EC50: 17 ± 2 nM
R1 cells; [9]
  EC50: 675 ± 35 nM
R1 cells; read-out: Growth inhibition EC50, R1
  EC50: 595 ± 5 nM
R1 cells; read-out: Growth inhibition EC50, R1 (↑ DHFR)
  EC50: 6445 ± 55 nM

## C#CCN(Cc1ccc2nc(N)[nH]c(=O)c2c1)c1ccc(C(=O)N[C@@H](CCC(=O)O)C(=O)O)cc1 [PDDF]
FaDu; [7]
  EC50: 1700 ± 200 nM

B1: CCRF-CEM human leukemia cell folylpolyglutamate synthetase (Homo sapiens) (protein)
chain: MEYQDAVRMLNTLQTNAGYLEQVKRQRGDPQTQLEAMELYLARSGLQVEDLDRLNIIHVTGTKGKGSTCAFTECILRSYGLKTGFFSSPHLVQVRERIRINGQPISPELFTKYFWRLYHRLEETKDGSCVSMPPYFRFLTLMAFHVFLQEKVDLAVVEVGIGGAYDCTNIIRKPVVCGVSSLGIDHTSLLGDTVEKIAWQKGGIFKQGVPAFTVLQPEGPLAVLRDRAQQISCPLYLCPMLEALEEGGPPLTLGLEGEHQRSNAALALQLAHCWLQRQDRHGAGEPKASRPGLLWQLPLAPVFQPTSHMRLGLRNTEWPGRTQVLRRGPLTWYLDGAHTASSAQACVRWFRQALQGRERPSGGPEVRVLLFNATGDRDPAALLKLLQPCQFDYAVFCPNLTEVSSTGNADQQNFTVTLDQVLLRCLEHQQHWNHLDEEQASPDLWSAPSPEPGGSASLLLAPHPPHTCSASSLVFSCISHALQWISQGRDPIFQPPSPPKGLLTHPVAHSGASILREAAAIHVLVTGSLHLVGGVLKLLEPALSQ
notes: substrates for human leukemia cell CCRF-CEM folylpolyglutamate synthetase; endogenous in cells; host or cells: CCRF-CEM human leukemia cells
[5]
  Km: 8.5 ± 2.1 µM
[6]; other: Table 10
  Km: 4.3 ± 0.2 µM
[6]; other: Table 18
  Km: 4.8 ± 0.7 µM
